“Also recorded” adds a separate entry of the source. Where two headings read alike, the source gives them in different places.
What was measured:
OATP1B1/1B3 = conditions: cited from earlier work
[1] = tested on: breast cancer resistance protein (BCRP); conditions: not told; cited from earlier work
CYP1A2 = tested on: CYP1A2; design: method as in PMID 26353895; conditions: cited from earlier work
CYP3A = tested on: CYP3A; design: method as in PMID 26353895; conditions: cited from earlier work
[2] = Plasma pharmacokinetics, Phase I open‐label two‐group fixed‐sequence drug‐drug interaction study; conditions: for C min / concentration at 23.9 h / concentration at 24 h / Cmax: mean (SD); for T last / Tmax: median (range); for AUC0‐24 h LSM ratio / C min LSM ratio / Cmax LSM ratio: point estimate (90% CI); for concentration at 23.9 h / concentration at 24 h / Cmax / Tmax: human, plasma, oral; for concentration at 23.9 h / concentration at 24 h: C last; for Tmax: T max
Text: This was an open‐label, two‐group, fixed‐sequence study conducted at a single study center in Rennes, France (Biotrial). A two‐group, fixed‐sequence study design was chosen as this was deemed to be the most efficient way to evaluate the effect of simeprevir with/without odalasvir on AL‐335; and vice versa (Group 1) and the effect of odalasvir with/without simeprevir on AL‐335; and vice versa (Group 2). Thus, this study design had the potential to gather both 2‐way and 3‐way DDIs. For both groups, the study consisted of a screening period, a study period, and two follow‐up visits. The study was authorized by the French National Agency for the Safety of Medicine and Health Products (ANSM) and was approved by an Independent Ethics Committee (Comité de Protection des Personnes [CPP] Ouest VI, Brest, France; Reference CPP Ouest 6–CPP 888/MS1), and was conducted in accordance with the principles of the Declaration of Helsinki and International Conference on Harmonization. All subjects provided written informed consent to participate. Drug and molecular target nomenclature in this manuscript conforms to the British Journal of Pharmacology's Concise Guide to Pharmacology 2017/18.19
Subjects in Group 1 received simeprevir 150 mg QD on days 4‐23, odalasvir 150 mg (loading dose) on day 14, odalasvir 50 mg QD on days 15‐23, and AL‐335 800 mg QD on days 1‐3, 11‐13, and 21‐23. Subjects in Group 2 received odalasvir 150 mg (loading dose) on day 4, odalasvir 50 mg QD on days 5‐23, simeprevir 150 mg QD on days 14‐23, and AL‐335 800 mg QD on days 1‐3, 11‐13, and 21‐23. […] A minimum of 10 days was considered sufficient for both odalasvir and simeprevir to reach steady‐state.
Subjects were assigned sequentially to Group 1 then to Group 2 after confirming eligibility.
As this was an […] pharmacokinetic study, blood samples for pharmacokinetic analysis were collected predose and at 0.25, 0.5, 1, 2, 3, 4, 6, 8, 10, 12, and 24 hours postdose on days 3, 13, and 23 for determination of AL‐335, ALS‐022399, and ALS‐022227 plasma concentrations (Groups 1 and 2). For simeprevir, blood samples for determination of simeprevir plasma concentrations were taken at the same time points but on days 10, 13, 20, and 23 (Group 1) or days 20 and 23 (Group 2). Blood samples for the determination of odalasvir plasma concentrations were collected predose and at 1, 3, 4, 5, 6, 7, 8, 9, 10, 12, 16, and 24 hours postdose on days 20 and 23 (Group 1) or days 10, 13, 20, and 23 (Group 2), with two further samples also collected on the day 7 and day 28 follow‐up assessments (both groups).
Plasma concentrations of AL‐335, ALS‐022399, ALS‐022227, odalasvir, and simeprevir were determined using validated liquid chromatography‐tandem mass spectrometry methods. Dichlorvos solution was added to blood samples from AL‐335‐treated subjects to stabilize AL‐335 and its metabolites (25 μL of 5 mmol/L dichlorvos into 1 mL blood). The lower limit of quantification was 1 ng/mL, 2 ng/mL, and 5 ng/mL for AL‐335, ALS‐022399, and ALS‐022227, respectively, 1 ng/mL for odalasvir, and 2 ng/mL for simeprevir.
Pharmacokinetic analyses were performed on all subjects with available profiles who received at least one dose of study drug without any protocol deviation affecting pharmacokinetic evaluation. […] Secondary parameters were last observed plasma concentration, apparent elimination half‐life, time of the maximum observed plasma concentration (T max), and time to last measurable plasma concentration (T last).

[3] = Group 1 Day 13, SMV + AL‐335 versus SMV alone
[4] = Group 1 Day 20, SMV + ODV versus SMV alone
[5] = Group 1 Day 23, SMV + AL‐335 + ODV versus SMV alone
[6] = Group 1 Day 23, SMV + AL‐335 + ODV
[7] = Group 2 Day 23, SMV + AL‐335 + ODV

COc1ccc2c(O[C@@H]3C[C@H]4C(=O)N[C@]5(C(=O)NS(=O)(=O)C6CC6)C[C@H]5/C=C\CCCCN(C)C(=O)[C@@H]4C3)cc(-c3nc(C(C)C)cs3)nc2c1C [simeprevir]
OATP1B1/3 substrate / inhibitor status (OATP1B1/1B3): clinically confirmed OATP1B1 inhibitor
OATP1B1/3 substrate / inhibitor status (OATP1B1/1B3; listed as Simeprevir): substrate and inhibitor
BCRP substrate / inhibitor status [1]: substrate and inhibitor
CYP1A2 inhibition (CYP1A2): mild but not clinically relevant inhibitor
CYP3A inhibition (CYP3A): mild inhibitor of intestinal (not hepatic) CYP3A
effect of AL‐335 on pharmacokinetics ([2]; AL‐335 800 mg QD coadministered): no effect; also recorded: did not alter; also recorded: no impact
C min ([2]; Group 1 Day 10, SMV alone): 833 (856) ng/mL
T last ([2]; Group 1 Day 10, SMV alone): 23.9 (23.9‐24.0) h
C min ([2]; Group 1 Day 13, SMV + AL‐335): 857 (1129) ng/mL
T last ([2]; Group 1 Day 13, SMV + AL‐335): 23.9 (23.9‐24.0) h
AUC0‐24 h LSM ratio [2, 3]: 0.93 (0.83‐1.05)
C min LSM ratio [2, 3]: 0.88 (0.76‐1.02)
Cmax LSM ratio [2, 3]: 0.89 (0.79‐1.00)
AUC0‐24 h LSM ratio [2, 4]: 1.76 (1.53‐2.01)
C min LSM ratio [2, 4]: 1.41 (1.01‐1.99)
Cmax LSM ratio [2, 4]: 1.66 (1.36‐2.01)
C min ([2]; Group 1 Day 20, SMV + ODV): 1446 (2064) ng/mL
T last ([2]; Group 1 Day 20, SMV + ODV): 23.9 (23.9‐24.0) h
AUC0‐24 h LSM ratio [2, 5]: 1.60 (1.38‐1.85)
C min LSM ratio [2, 5]: 1.82 (1.52‐2.19)
Cmax LSM ratio [2, 5]: 1.43 (1.23‐1.66)
C min [2, 6]: 1910 (2441) ng/mL
T last [2, 6]: 24.0 (24.0‐24.0) h
C min ([2]; Group 2 Day 20, SMV + ODV): 1274 (1035) ng/mL
T last ([2]; Group 2 Day 20, SMV + ODV): 23.9 (23.8‐24.1) h
C min [2, 7]: 1847 (2313) ng/mL
T last [2, 7]: 24.0 (24.0‐24.1) h
concentration at 23.9 h ([2]; 150 mg, Group 1 Day 10, SMV alone): 981 ng/mL
concentration at 23.9 h ([2]; Group 1 Day 13, SMV + AL‐335): 1020 ng/mL
concentration at 23.9 h ([2]; Group 1 Day 20, SMV + ODV): 2340 ng/mL
concentration at 24 h [2, 6]: 2390 ng/mL
concentration at 23.9 h ([2]; Group 2 Day 20, SMV + ODV): 2140 ng/mL
concentration at 24 h [2, 7]: 2590 ng/mL
Cmax ([2]; Group 1 Day 10, SMV alone): 2960 ng/mL
Cmax ([2]; Group 1 Day 13, SMV + AL‐335): 2760 ng/mL
Cmax ([2]; Group 1 Day 20, SMV + ODV): 5220 ng/mL
Cmax [2, 6]: 4740 ng/mL
Cmax ([2]; Group 2 Day 20, SMV + ODV): 4530 ng/mL
Cmax [2, 7]: 4950 ng/mL
Tmax ([2]; Group 1 Day 10, SMV alone): 6 h
Tmax ([2]; Group 1 Day 13, SMV + AL‐335): 6 h
Tmax ([2]; Group 1 Day 20, SMV + ODV): 6 h
Tmax [2, 6]: 6 h
Tmax ([2]; Group 2 Day 20, SMV + ODV): 6 h
Tmax [2, 7]: 8 h
difference in T max ([2]; simeprevir coadministered with odalasvir): No clinically relevant difference
